Laboratory results as given in patent US11402382B2, “Diagnostic and therapeutic methods for cancer” (Genentech, Inc., priority 2017, dated 2022).

System: previously untreated metastatic renal cell carcinoma (mRCC)
Assay: IMmotion150: PFS and ORR in PD-L1 IHC and gene expression signature (Teff, Angio, Myeloid) subgroups
Assay type: in vivo, human
Conditions: for PFS HR (95% CI) vs Sun: unstratified
Method: PD-L1 status on tumor-infiltrating immune cells (IC) was assessed in the phase II IMmotion150 study by immunohistochemistry (IHC) using the anti-human PD-L1 rabbit monoclonal antibody, SP142, and scored using an identical IHC scoring criteria (IC1/2/3=≥1% of tumor-infiltrating lymphocytes are PD-L1-positive; IC2/3=≥5% of tumor-infiltrating lymphocytes are PD-L1-positive) (n=297). PD-L1 status can be assessed as described in International Patent Application Publication Nos. WO 2016/183326 and WO 2016/196298. Mutation evaluations by whole exome sequencing (WES) and gene expression analyses by RNA-Seq (n=263) were also performed. For the gene expression analyses, gene expression levels were evaluated for T effector and IFNγ response (Teff) genes (CD8A, IFNG, PRF1, EOMES, and PD-L1), as well as for angiogenesis-related (Ang) genes (VEGFA, KDR, ESM1, PECAM1, ANGPTL4, and CD34), and myeloid inflammation-related (Myeloid) genes (IL6, CXCL1, CXCL2, CXCL3, CXCL8, and PTGS2). The Teff genes at low expression levels (i.e., below the median expression levels of the evaluated Teff genes; “Teff low”) and high expression levels (i.e., at or above the median expression levels of the evaluated Teff genes; “Teff high”) were evaluated in relation to progress-free survival (PFS) per RECIST v.1.1 via Independent Review Facility (IRF) assessment. The Ang genes at low expression levels (i.e., below the median expression levels of the evaluated Ang genes; “Ang low”) and high expression levels (i.e., at or above the median expression levels of the evaluated Ang genes; “Ang high”) were also evaluated in relation to PFS per RECIST v.1.1 via IRF assessment. The Myeloid genes at low expression levels (i.e., below the median expression levels of the evaluated Myeloid genes; “Myeloid low”) and high expression levels (i.e., at or above the median expression levels of the evaluated Myeloid genes; “Myeloid high”) were also evaluated in relation to PFS per RECIST v.1.1 via IRF assessment. To determine the median expression levels, first a Z-score was calculated for the normalized expression of all of the genes in a group. The median level of all the Z-scores across the dataset was used as a reference level to identify biomarker high versus biomarker low subgroups.
Tumor specimens from patients acquired <12 months prior to study treatment were required for enrollment in the study. Tissue was prospectively tested for PD-L1 expression on IC by a central laboratory using the SP142 IHC assay (VENTANA, Tucson, Ariz.). IC staining was defined as follows: any discernible PD-L1 staining of any intensity in IC covering <1% or absent, between ≥1% and <5%, between ≥5% and <10%, or ≥10% of tumor area.
Kaplan-Meier methodology was used to estimate the median PFS for each treatment arm, and Kaplan-Meier curves were produced. The primary analysis was triggered when 140 INV-PFS events occurred among patients treated with atezolizumab+bevacizumab and with sunitinib or among patients treated with atezolizumab alone and with sunitinib, whichever occurred later. […] The stratification factors included prior nephrectomy, tumor PD-L1 status, and MSKCC score and were determined based on data from the electronic case report form; if such data were missing, data collected by the IxRS at the time of randomization were used. Tumor specimens were prospectively tested for PD-L1 expression on ICs by a central laboratory using the SP142 IHC assay (VENTANA, Tucson, Ariz.). IC staining was defined as follows: any discernible PD-L1 staining of any intensity in IC covering <1% or absent (ICO), between ≥1% and <5% (IC1), between ≥5% and <10% (IC2), or ≥10% (IC3) of tumor area occupied by tumor cells, associated intratumoral, and contiguous peri-tumoral desmoplastic stroma.
Whole transcriptome profiles were generated for 263 patients using TRUSEQ® RNA Access technology (ILLUMINA®). RNAseq reads were first aligned to ribosomal RNA sequences to remove ribosomal reads. […]

[1] = Teff^HighMyeloid^High vs Teff^HighMyeloid^Low

Row | Compound | ORR (Angio^High subgroup) [%] | PFS HR (95% CI), within arm analysis (Angio^High vs Angio^Low) | ORR (Angio^Low subgroup) [%] | PFS HR (95% CI), within arm analysis (Myeloid^High vs Myeloid^Low) | PFS HR (95% CI), within arm analysis (Teff^High vs Teff^Low) | PFS HR (95% CI), within arm analysis [1] | PFS HR (95% CI) vs Sunitinib (Ang high (Angio^High) subgroup) | PFS HR (95% CI) vs Sunitinib (Ang low (Angio^Low) subgroup) | PFS HR (95% CI) vs Sunitinib (Myeloid^High subgroup) | PFS HR (95% CI) vs Sunitinib (Myeloid^Low subgroup) | PFS HR (95% CI) vs Sun (PD-L1 IHC IC1/2/3) | PFS HR (95% CI) vs Sun (PD-L1 IHC IC2/3) | PFS HR (95% CI) vs Sunitinib (Teff high subgroup (at or above median)) | PFS HR (95% CI) vs Sunitinib (Teff low subgroup (below median)) | PFS HR (95% CI) vs Sunitinib (Teff^High Myeloid^High subgroup) | PFS HR (95% CI) vs Sunitinib (Teff^High Myeloid^Low subgroup)
1 | CCN(CC)CCNC(=O)c1c(C)[nH]c(/C=C2\C(=O)Nc3ccc(F)cc32)c1C [Sunitinib, N-[2-(Diethylamino)ethyl]-5-[(Z)-(5-fluoro-2-oxo-1,2-dihydro-3H-indol-3-ylidene)methyl]-2,4-dimethyl-1H-pyrrole-3-carboxamide] | 45 | 0.31 | 10 | 0.82 | 1.31 | 1.10 |  |  |  |  |  |  |  |  |  | 
2 | Atezo: anti-PD-L1 antibody atezolizumab (CAS Registry Number: 1422185-06-5), Genentech, also known as MPDL3280A |  | 0.74 |  | 2.98 | 0.83 | 3.82 | 1.46 | 0.75 | 2.03 | 0.53 | 0.97 | 0.54 | 0.85 | 1.33 | 1.81 | 0.47
